Source: patent EP0998923A1, “Use of 5-HT7 receptor agonists for the treatment or prophylaxis of ischemias” (BASF AKTIENGESELLSCHAFT, priority 1998, dated 2000)
pKi: −log10 of the molar value.

Tests used:
5-HT7 receptor = 5-HT7 receptor (Homo sapiens, UniProt P34969); assay: Affinity to the 5-HT7 receptor; type: binding
Description: (§1) The affinity of a compound to a human 5-HT receptor can be measured and calculated easily by methods known to a skilled person.

male Long Evans rats = assay: Permanent distal middle cerebral artery (MCA) occlusion, rat model of experimental stroke; type: in vivo
Procedure: The experiments were carried out in male Long Evans rats. Under halothane anesthesia supplemented with nitrous oxide, the right middle cerebral artery (MCA) was dissected and permanently ligated at a distal position as described in the literature. The outcome of the experiments was quantified by determining the resulting infarct volume 22 hours after MCA occlusion.
In the first series of experiments, animals were treated with 2 mg/kg R(+)-8-OH-DPAT i.v. followed by a maintenance infusion of 1 mg/kg/h R(+)-8-OH-DPAT i.v. Drug administration was started 90 min after MCA occlusion. In the second series of experiments, rats were pretreated with 2.14 mg/kg/h WAY 100,635 i.p., started 2 hours before MCA occlusion; administration of R(+)-8-OH-DPAT was subsequently performed as in the first study. Accordingly, in the second series a total dose of 2.14 mg/kg/h of WAY 100,635 had been administered for 3.5 h (total dosage = 7.49 mg/kg) before treatment with the agonist R(+)-8-OH-DPAT commenced. The blockade of 5-HT1A receptors under these conditions was confirmed by the complete lack of stereotyped behavior observed in animals treated with R(+)-8-OH-DPAT […]. Under the conditions of the second series, any pharmacological effect of R(+)-8-OH-DPAT treatment are mediated by the 5-HT7 receptor.
The experiments were carried out under the same conditions as described in Example 1,
A preferred 5-HT7 receptor agonist is 1-[3-[4-[3-(trifluoromethyl)-phenyl]-piperazine-1-yl]-propyl]-3-hydroxy-1H-pyridine-2-on (= Compound A), a compound which can be prepared as discribed in example 3. The 5-HT7 agonist Compound A was administered as an intravenous bolus followed by a maintenance infusion.

5-HT1A receptor = biological target: T1, 5-HT1A receptor (Homo sapiens, UniProt P08908); assay: Affinity to the 5-HT1A receptor; type: binding
T1 sequence (P08908 1-422): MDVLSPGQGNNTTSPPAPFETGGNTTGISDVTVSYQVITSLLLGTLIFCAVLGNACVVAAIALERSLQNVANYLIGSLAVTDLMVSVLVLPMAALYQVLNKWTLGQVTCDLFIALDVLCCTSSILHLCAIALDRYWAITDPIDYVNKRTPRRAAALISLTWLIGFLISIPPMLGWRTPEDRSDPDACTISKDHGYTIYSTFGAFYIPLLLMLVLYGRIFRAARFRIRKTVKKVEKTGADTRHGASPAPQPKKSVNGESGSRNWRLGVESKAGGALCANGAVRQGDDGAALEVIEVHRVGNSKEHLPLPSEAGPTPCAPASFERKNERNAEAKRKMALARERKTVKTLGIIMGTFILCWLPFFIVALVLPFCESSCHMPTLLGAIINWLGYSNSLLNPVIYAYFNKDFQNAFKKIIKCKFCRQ
Description: as §1

Chain of 5-HT7 receptor (P34969 whole entry): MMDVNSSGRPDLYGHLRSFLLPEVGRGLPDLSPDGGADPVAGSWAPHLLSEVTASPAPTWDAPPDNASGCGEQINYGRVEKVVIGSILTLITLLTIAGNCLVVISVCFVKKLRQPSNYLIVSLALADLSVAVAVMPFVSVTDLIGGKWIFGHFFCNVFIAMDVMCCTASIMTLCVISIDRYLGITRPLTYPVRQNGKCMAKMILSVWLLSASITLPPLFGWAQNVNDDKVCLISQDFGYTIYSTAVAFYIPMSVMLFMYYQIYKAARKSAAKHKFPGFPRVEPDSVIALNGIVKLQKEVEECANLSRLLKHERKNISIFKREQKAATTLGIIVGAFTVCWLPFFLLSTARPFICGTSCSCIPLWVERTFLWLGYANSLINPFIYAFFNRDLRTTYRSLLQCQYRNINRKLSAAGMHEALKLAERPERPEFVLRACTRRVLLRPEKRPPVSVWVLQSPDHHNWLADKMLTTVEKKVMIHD

| Compound | pKi (5-HT7 receptor) | selectivity for the 5-HT7 receptor (5-HT7 receptor; 5-HT7 over 5-HT1A (ratio of Ki values)) | Stereotyped behavior (male Long Evans rats; Example 2: dose 4+2 mg/kg + mg/kg/h i.v.) | Infarct volume, % of control, mean ± SD, (n) Treatment (male Long Evans rats; Example 2: dose 4+2 mg/kg + mg/kg/h i.v. (bolus + maintenance infusion), same conditions as Example 1) | pKi (5-HT1A receptor) | Infarct volume, % of control, mean ± SD, (n) Treatment (male Long Evans rats; Example 1: 2 mg/kg R(+)-8-OH-DPAT i.v. + 1 mg/kg/h i.v. infusion, started 90 min after MCA occlusion, combination: pretreated with 2.14 mg/kg/h WAY 100,635 i.p. from 2 hours before occlusion, infarct volume 22 hours after occlusion) | Stereotyped behavior (male Long Evans rats; Example 1: same dosing as for infarct volume, with or without WAY 100,635 pretreatment) | reduction of infarct volume (male Long Evans rats; Example 1: versus placebo, 22 hours after MCA occlusion) |
| --- | --- | --- | --- | --- | --- | --- | --- | --- |
| O=c1c(O)cccn1CCCN1CCN(c2cccc(C(F)(F)F)c2)CC1 [Compound A, 1-[3-[4-[3-(trifluoromethyl)-phenyl]-piperazine-1-yl]-propyl]-3-hydroxy-1H-pyridine-2-on] | 8.15 | approximately 19 fold | No | 78±23(10) % of control | 6.89 |  |  |  |
| CCCN(CCC)C1CCc2cccc(O)c2C1 (stereo not drawn) [R(+)-8-OH-DPAT, 8-hydroxy-di-n-propylamino tetralin] |  |  |  |  |  | 72±32(12) % of control | Yes | 28% |
